Patent US11326174B2, “Engineered yeast strains enabling anaerobic xylose fermentation decoupled from microbial growth” (Wisconsin Alumni Research Foundation, priority 2018, dated 2022)
“Also recorded” adds a separate entry of the source.

Assays:
PKA = PKA activity assay: in vitro phosphorylation of a PKA substrate by cell lysate; format: biochemical, Saccharomyces cerevisiae; conditions: 50 μM H-89
Method: PKA activity assay. Measurement of PKA activity was performed on lysed cells using the PKA Kinase Activity Assay Kit from ABCAM. Cultures were grown anaerobically in xylose for three doublings (to OD˜0.5), at which 10 mL of cells were collected by centrifugation for 3 minutes at 3000 rpm, in preparation for lysis. Supernatant was removed under anaerobic conditions and the cells were resuspended in 1 mL of SB buffer (1 M sorbitol, 20 mM Tris HCl, pH 7.4) with 300 units of zymolyase (Amsbio) and 10 μL of protease inhibitor cocktail IV (Millipore). Cells were incubated for 10 minutes at 30° C. anaerobically. Cells were collected by […] for 5 minutes at 350×g and washed 1× with SB buffer under anaerobic conditions. Cells were resuspended in 750 μL HLB buffer (10 mM Tris HCl, pH 7.4, 10 mM NaCl, 3 mM MgCl2, 0.3% (vol/vol) NP-40, 10% (vol/vol) glycerol) with 10 μL protease inhibitor cocktail IV and incubated on ice for 10 minutes, anaerobically. […] Lysis was verified using microscopy and total protein abundance was determined using a Bradford assay. […] The reaction was detected using a TECAN Infinite 200 Pro with a wavelength of 450 nm. […] Relative PKA activity was calculated by subtracting […] to remove background, followed by normalization to total protein abundance for each sample. […]

Y128 = assay: Inhibition of growth using hydroxyurea during anaerobic growth on xylose; format: cell-based, Saccharomyces cerevisiae; conditions: 400 mM hydroxyurea added after 17 hours
Method: Inhibition of growth using hydroxyurea. Growth inhibition was performed using 400 mM hydroxyurea, added after 17 hours of anaerobic growth in xylose. Before and after growth inhibition, OD600 as well as sugar and ethanol concentrations were measured as above.

tpk2^as = target: T1, tpk2^as (Saccharomyces cerevisiae, UniProt P06245, M147G); assay: Inhibition of analog-sensitive PKA in Y133 tpk1Δtpk3Δtpk2^as during anaerobic growth on xylose; format: cell-based; conditions: 10 μM 1-NM-PP1 added after 17 hours
T1 construct: tpk2as repair templates were generated by PCR of the whole ORF of tpk2as; endogenous in cells; host or cells: S. cerevisiae Y133 tpk1Δtpk3Δtpk2^as; allele placed at the chromosomal TPK2 locus by CRISPR/Cas9 editing
T1 sequence (P06245 whole entry M147G): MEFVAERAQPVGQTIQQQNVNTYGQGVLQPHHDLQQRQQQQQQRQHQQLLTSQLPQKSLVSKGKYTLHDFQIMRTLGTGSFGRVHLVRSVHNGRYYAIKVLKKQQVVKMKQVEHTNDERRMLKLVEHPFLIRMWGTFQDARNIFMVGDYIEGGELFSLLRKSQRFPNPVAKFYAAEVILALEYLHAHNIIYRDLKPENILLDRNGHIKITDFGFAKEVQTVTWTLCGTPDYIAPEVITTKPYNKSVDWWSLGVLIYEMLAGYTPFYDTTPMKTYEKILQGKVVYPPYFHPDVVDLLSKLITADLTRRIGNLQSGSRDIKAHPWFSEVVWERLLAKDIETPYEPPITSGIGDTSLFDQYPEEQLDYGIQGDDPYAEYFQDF
Description: Y133 tpk1Δtpk3Δtpk2^as was generated using CRISPR/Cas9-mediated genome editing. TPK1 and TPK3 were deleted in Y133 independently and verified by PCR. sgRNA sequence ([…]) that targeted the location within TPK2 to be replaced was cloned into the pXIPHOS vector using Not1 (GenBank accession MG897154), which contains the constitutive RNR2 promoter driving the Cas9 gene and NatMX resistance gene, using gapped plasmid repair using HiFi DNA Assembly Master Mix from NEB. tpk2as repair templates were generated by PCR of the whole ORF of tpk2as from a strain containing mutants of the TPK genes that are sensitive to the ATP-analogue inhibitor 1-NM-PP1 (TPK1 M164G, TPK2 M147G, TPK3 M165G). Purified repair templates were co-transformed at a 20-fold molar excess with the pXIPHOS-TPK2 sgRNA plasmid into Y133 tpk1Δtpk3Δ strain. Colonies resistant to nourseothricin were restreaked onto YPD two times to remove the plasmid (and were verified to now be sensitive to nourseothricin) and tpk2as presence was verified by sequencing. Y133 tpk1Δtpk3Δtpk2^as was grown in xylose anaerobically for 17 hours at which point 10 μM 1-NM-PP1 or DMSO control was added to the cultures.

O=S(=O)(NCCNC/C=C/c1ccc(Br)cc1)c1cccc2cnccc12 [Strain H-89]
Effect on phosphorylation of a PKA substrate in vitro (PKA; lysate from Y128 grown anaerobically on xylose): blocked | Effect on phosphorylation of a PKA target in vitro (PKA; lysate from Y184 bcy1Δ grown anaerobically on xylose): blocked

NC(=O)NO [hydroxyurea]
Effect on anaerobic xylose utilization (Y128): does not promote anaerobic xylose utilization; also recorded: halted xylose utilization | Effect on growth (OD600) (Y128): inhibits growth

CC(C)(C)n1nc(Cc2cccc3ccccc23)c2c(N)ncnc21 [Strain 1-NM-PP1]
Effect on growth and fermentation during anaerobic xylose utilization (tpk2^as): rapidly inhibited growth and fermentation
